Assay results: patent publication US5714363A, “Deacetoxycephalosporin C hydroxylase” (priority 1992, dated 1998)
Structures can show the parent of a compound that is named as a salt. Where two headings read alike, the source gives them in different places.

Legend:
DAOC hydroxylase [1] = molecular target: T1, DAOC hydroxylase (Streptomyces clavuligerus, UniProt P42220); experiment: DAOC hydroxylase activity assay (DAC formation from DAOC, HPLC at 260 nm); assay type: biochemical; design: The highly purified native enzyme (92% purity) has a molecular weight of 35,000 dalton; endogenous in cells; host or cells: Streptomyces clavuligerus cells (native producer; NRRL 18491 is named as preferred strain), enzyme purified from cell-free extract; conditions: for Relative Activity (%): no additive = 100; for stimulation of catalytic activity: with Fe2+, α-ketoglutarate and O2; for replacement of ferrous ion for enzymatic activity: ion in place of Fe2+; for reduction in enzyme activity: substitution of MOPS buffer at optimal pH; for drop of maximum catalytic activity when not present: external ferrous ion, DTT and ascorbate both absent
T1 sequence (P42220 1-318): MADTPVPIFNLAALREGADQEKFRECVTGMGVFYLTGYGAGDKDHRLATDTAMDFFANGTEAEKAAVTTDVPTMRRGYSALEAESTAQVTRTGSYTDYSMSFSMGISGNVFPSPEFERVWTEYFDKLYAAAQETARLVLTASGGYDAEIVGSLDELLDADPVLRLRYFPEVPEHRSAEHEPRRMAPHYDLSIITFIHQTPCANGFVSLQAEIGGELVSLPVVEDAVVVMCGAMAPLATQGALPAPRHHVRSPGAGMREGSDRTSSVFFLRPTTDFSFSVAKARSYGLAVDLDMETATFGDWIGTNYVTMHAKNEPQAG
Description: (§1) The activity of the DAOC hydroxylase is determined throughout the process by the following assay method. The hydroxylase activity was determined by monitoring DAC formation from DAOC at 260 nm with HPLC as described by Dotzlaf, J. E., and Yeh, W.-K. (1987) J. Bacteriol., 169, 1611-1618. […] The enzymatic reaction is initiated by adding the DAOC and the reaction is conducted for 20 minutes at 29° C. DAC formation is linear with reaction time for up to 40 minutes. One unit of enzyme activity is defined as the amount of hydroxylase required to cause formation of one μmol of DAC per minute from DAOC under the above-described assay conditions.
The specific activity of the hydroxylase is defined as units per milligram of protein.

DAOC hydroxylase [2] = molecular target: T1, DAOC hydroxylase; experiment: Substrate specificity of purified DAOC hydroxylase; assay type: biochemical; design: The highly purified native enzyme (92% purity) has a molecular weight of 35,000 dalton; endogenous in cells; host or cells: Streptomyces clavuligerus cells (native producer; NRRL 18491 is named as preferred strain), enzyme purified from cell-free extract; conditions: for Sp. Activity (mU/mg) / Relative Activity (%): compound as substrate; for Relative Activity (%): relative to DAOC = 100; for Vmax (Percent Catalytic Activities, relative Vmax): relative to DAOC to DAC = 100, substrate of the reaction; for effectiveness as substrate: conditions for optimal catalysis
Description: Several compounds were evaluated as substrates for the purified enzyme to determine its substrate specificity. The compounds evaluated and the results are shown below in TABLE 4. The results were obtained by EPLC analysis.
as §1

DAOC hydroxylase [3] = molecular target: T1, DAOC hydroxylase; experiment: Stoichiometry of DAOC to DAC conversion; assay type: biochemical; design: The highly purified native enzyme (92% purity) has a molecular weight of 35,000 dalton; endogenous in cells; host or cells: Streptomyces clavuligerus cells (native producer; NRRL 18491 is named as preferred strain), enzyme purified from cell-free extract
Description: The stoichiometry of the hydroxylase conversion of DAOC to DAC was determined. The molar ratio for DAC-formation/DAOC-disappearance during a 3 h reaction remained in the range of 0.91-1.00 as shown by the plot in FIG. 2. The conversion of DAOC to DAC was only partially complete (58%) under the reaction conditions.

DAOC hydroxylase [4] = molecular target: T1, DAOC hydroxylase; experiment: Kinetic parameters of DAOC hydroxylase (Lineweaver-Burk)
Description: as §1, with “DAC formation is linear with reaction time for up to 40 minutes.” left out

[5] = Description: The DAOC hydroxylase is recognized as unstable and, accordingly, was difficult to isolate and obtain in a high state of purity from cell-free extracts.
The process of this invention comprises the use of a hydroxylase stabilizing buffer which is used both in the preparation of crude cell-free extracts of the enzyme and during the isolation and purification thereof. The stabilizing buffer, referred to herein as buffer A, comprises 15 mM MOPS buffer, pH 7.3, containing 1 mM uric acid, 1 mM mannitol and 0.1M KCl.

[6] = substrate: O=C(O)CCC(=O)C(=O)O; experiment: purified protein, by the assay type; conditions: other: saturated concentration of the other substrate (300 μM DAOC or α-KG); pH 7.3; 29.0 °C
[7] = substrate: CC1=C(C(=O)O)N2C(=O)[C@@H](NC(=O)CCC[C@@H](N)C(=O)O)[C@H]2SC1; experiment: purified protein, by the assay type; conditions: other: saturated concentration of the other substrate (300 μM DAOC or α-KG); pH 7.3; 29.0 °C

CCN1C(=O)C=CC1=O [NEM, Nethylmaleimide]
Relative Activity (%) (DAOC hydroxylase [1]; additive 1 mM): 24%

N[C@@H](CCC(=O)N[C@@H](CS)C(=O)NCC(=O)O)C(=O)O [Reduced glutathione]
stimulation of catalytic activity (DAOC hydroxylase [1]): as effective

[K+] [potassium]
replacement of ferrous ion for enzymatic activity (DAOC hydroxylase [1]): not replaceable

CC1=C(C(=O)O)N2C(=O)[C@@H](NC(=O)CCC[C@@H](N)C(=O)O)[C@H]2SC1 [DAOC, deacetoxycephalosporin C]
Sp. Activity (mU/mg) (DAOC hydroxylase [2]): 159.2 mU/mg | Relative Activity (%) (DAOC hydroxylase [2]): 100% | Vmax (Percent Catalytic Activities, relative Vmax) (DAOC hydroxylase [2]): 100% | conversion of DAOC to DAC (DAOC hydroxylase [3]; 3 h reaction): 58% | molar ratio DAC-formation/DAOC-disappearance (DAOC hydroxylase [3]; during a 3 h reaction): 0.91-1.00

[Ni+2] [Ni^2+]
replacement of ferrous ion for enzymatic activity (DAOC hydroxylase [1]): not replaceable

[Cu+2] [Cu^2+]
replacement of ferrous ion for enzymatic activity (DAOC hydroxylase [1]): not replaceable

OCCS [β-Mercaptoethanol]
stimulation of catalytic activity (DAOC hydroxylase [1]): little stimulating effect

[Na+] [sodium]
replacement of ferrous ion for enzymatic activity (DAOC hydroxylase [1]): not replaceable

[Zn+2] [Zn^2+]
replacement of ferrous ion for enzymatic activity (DAOC hydroxylase [1]): not replaceable

[Fe+3] [ferric ion]
replacement of ferrous ion for enzymatic activity (DAOC hydroxylase [1]): can replace ferrous ion with retention of maximum activity

O=C(O)CI [Iodoacetic acid]
Relative Activity (%) (DAOC hydroxylase [1]; additive 1 mM): 59%

[Mg+2] [Mg^2+]
replacement of ferrous ion for enzymatic activity (DAOC hydroxylase [1]): not replaceable

O=C(O)CN(CCN(CC(=O)O)CC(=O)O)CC(=O)O [EDTA, ethylenediamine tetraacetic acid]
Relative Activity (%) (DAOC hydroxylase [1]; additive 0.05 mM): 16% | Relative Activity (%) (DAOC hydroxylase [1]; additive 0.5 mM): 0%

Nc1ncnc2c1ncn2[C@@H]1O[C@H](COP(=O)(O)OP(=O)(O)OP(=O)(O)O)[C@@H](O)[C@H]1O [ATP]
stimulation of catalytic activity (DAOC hydroxylase [1]): not

CC1=C(C(=O)O)N2C(=O)[C@@H](NC(=O)CCC[C@@H](N)C(=O)O)[C@H]2CC1 [Carba-DAOC, 1carba(1-dethia)deacetoxycephalosporin C]
Sp. Activity (mU/mg) (DAOC hydroxylase [2]): 3.0 mU/mg | Relative Activity (%) (DAOC hydroxylase [2]): 1.9% | effectiveness as substrate (DAOC hydroxylase [2]): did not serve as effective substrates

O=C(O)c1cc(SSc2ccc([N+](=O)[O-])c(C(=O)O)c2)ccc1[N+](=O)[O-] [DTNB, 5,5'-dithiobis2-nitrobenzoic acid]
Relative Activity (%) (DAOC hydroxylase [1]; additive 1 mM): 0%

CC1=C(C(=O)O)N2C(=O)[C@@H](NC(=O)CCC[C@H](N)C(=O)O)[C@H]2SC1 [Iso-DAOC, 7β-(Lα-aminoadipamido)-3-methyl-3-cephem-4-carboxylic acid]
Sp. Activity (mU/mg) (DAOC hydroxylase [2]): 1.3 mU/mg | Relative Activity (%) (DAOC hydroxylase [2]): 0.8% | effectiveness as substrate (DAOC hydroxylase [2]): did not serve as effective substrates

[Fe+2] [ferrous ion]
Ka of the hydroxylase (DAOC hydroxylase [4]; activator ferrous ion): 20 µM | enzymatic activity without external Fe2+ (DAOC hydroxylase [1]; no external Fe2+): 2 % of maximum

c1cnc2c(c1)ccc1cccnc12 [o-Phenanthroline]
Relative Activity (%) (DAOC hydroxylase [1]; additive 0.05 mM): 81% | Relative Activity (%) (DAOC hydroxylase [1]; additive 0.5 mM): 0%

[Ca+2] [Ca^2+]
replacement of ferrous ion for enzymatic activity (DAOC hydroxylase [1]): not replaceable

O=S(=O)(O)CCN1CCN(CCO)CC1 [HEPES buffer]
reduction in enzyme activity (DAOC hydroxylase [1]): 7%

[Co+2] [Co^2+]
replacement of ferrous ion for enzymatic activity (DAOC hydroxylase [1]): not replaceable

CC1(C)S[C@@H]2[C@H](NC(=O)CCC[C@@H](N)C(=O)O)C(=O)N2[C@H]1C(=O)O [Penicillin N, penicillin N]
effectiveness as substrate (DAOC hydroxylase [2]): weak catalytic activity | Vmax (Percent Catalytic Activities, relative Vmax) (DAOC hydroxylase [2]): 1.4%

O=S(=O)(F)Cc1ccccc1 [phenylmethylsulfonyl fluoride]
effect on the stability of the hydroxylase ([5]; added during preparation of the extracts): no effect

CCO [ethyl alcohol]
effect on the stability of the hydroxylase [5]: no effect

C=C1CS[C@@H]2[C@H](NC(=O)CCC[C@@H](N)C(=O)O)C(=O)N2C1C(=O)O (stereo partly drawn) [EMCC, 7β-(D-α-aminoadipamido)-3-exomethylenecepham-4-carboxylic acid]
Sp. Activity (mU/mg) (DAOC hydroxylase [2]): 58.1 mU/mg | Relative Activity (%) (DAOC hydroxylase [2]): 36.5% | effectiveness as substrate (DAOC hydroxylase [2]): fairly efficient | Vmax (Percent Catalytic Activities, relative Vmax) (DAOC hydroxylase [2]): 37%

O[C@H](CS)[C@H](O)CS (racemic) [DTT, dithiothreitol]
drop of maximum catalytic activity when not present (DAOC hydroxylase [1]): ~80% | stimulation of catalytic activity (DAOC hydroxylase [1]): stimulated

[Mn+2] [Mn^2+]
replacement of ferrous ion for enzymatic activity (DAOC hydroxylase [1]): not replaceable

NC(CO)(CO)CO [Tris-HCl buffer]
reduction in enzyme activity (DAOC hydroxylase [1]): 27%

O=C1O[C@H]([C@@H](O)CO)C(O)=C1O [ascorbate]
drop of maximum catalytic activity when not present (DAOC hydroxylase [1]): ~80%

B1: DAOC hydroxylase (Streptomyces clavuligerus) (protein)
chain: MADTPVPIFNLAALREGADQEKFRECVTGMGVFYLTGYGAGDKDHRLATDTAMDFFANGTEAEKAAVTTDVPTMRRGYSALEAESTAQVTRTGSYTDYSMSFSMGISGNVFPSPEFERVWTEYFDKLYAAAQETARLVLTASGGYDAEIVGSLDELLDADPVLRLRYFPEVPEHRSAEHEPRRMAPHYDLSIITFIHQTPCANGFVSLQAEIGGELVSLPVVEDAVVVMCGAMAPLATQGALPAPRHHVRSPGAGMREGSDRTSSVFFLRPTTDFSFSVAKARSYGLAVDLDMETATFGDWIGTNYVTMHAKNEPQAG
Km [6]: 10 µM | Km [7]: 50 µM

B2: DAOC hydroxylase: enzyme from Streptomyces clavuligerus converting DAOC to DAC; monomeric, about 35,000 dalton (protein, UniProt P42220 2-318, looked up)
Deacetoxycephalosporin C …: ADTPVPIFNLAALREGADQEKFRECVTGMGVFYLTGYGAGDKDHRLATDTAMDFFANGTEAEKAAVTTDVPTMRRGYSALEAESTAQVTRTGSYTDYSMSFSMGISGNVFPSPEFERVWTEYFDKLYAAAQETARLVLTASGGYDAEIVGSLDELLDADPVLRLRYFPEVPEHRSAEHEPRRMAPHYDLSIITFIHQTPCANGFVSLQAEIGGELVSLPVVEDAVVVMCGAMAPLATQGALPAPRHHVRSPGAGMREGSDRTSSVFFLRPTTDFSFSVAKARSYGLAVDLDMETATFGDWIGTNYVTMHAKNEPQAG
Vmax of the hydroxylase (DAOC hydroxylase [4]; DAOC to DAC, optimal reaction conditions): 0.45 μM of DAC formed per minute per milligram of protein | half-life ([5]; crude extract in stabilizing buffer A (15 mM MOPS pH 7.3, 1 mM uric acid, 1 mM mannitol, 0.1M KCl)): 72 h | half-life ([5]; crude extract, 4° C., 15 mM Tris-HCl buffer, pH 7.5): 12 h | improvement of half-life over Tris-HCl buffer ([5]; stabilizing buffer A): 6 fold
